Like-named read-outs stand apart in the source and are kept apart here.
Key:
[1] = tested on: subjects with chronic shingles and post-herpetic neuralgia (PHN); test: Topical reduced glutathione in a liposomal carrier in chronic shingles / post-herpetic neuralgia; format: in vivo, human
Text: Most the subjects at the time of the first visit reported significant depression and suicidal thoughts. Most subjects also reported giving up hope. […] The self-rated pain averaged a 7, but many subjects reported that when a break-out was occurring, the pain could spike to a 10. Videos and pictures were taken where and when appropriate with proper releases documented.

[2] = tested on: subject with diabetic peripheral neuropathy (DN); test: Topical and oral rGSH in diabetic peripheral neuropathy (case study); conditions: for outcome of diabetic neuropathy: person, 13 weeks of therapy
[3] = tested on: subjects with chemotherapy-induced peripheral neuropathy (CIPN)
Method: Subjects were treated with topical and oral rGSH in a natural liposomal carrier after initial consultation. Subjects began treatment prior to their second visit. Follow-up consultations with subjects occurred weekly to monthly according to symptoms and needs.
Procedures for measuring CIPN were based on interviews performed by a medical professional with subjects. The physician measured nerve sensitivity in some of the subjects using in-office medical instruments.

[4] = tested on: subject diagnosed with tardive dyskinesia (TD)
Method: Reduced glutathione was administered to the subject 5 times per day in a solution in the amount of about 18.25 mg per spray or about 91.25 mg per administration. The subject cleaned the area of application with a disinfectant wipe before topical application of the reduced glutathione. The topical rGSH was administered in 5 sprays of rGSH for a total dosage of about 91.25 mg. The administered rGSH dried for about 30 seconds before the subject was re-clothed. The facial movements and body movements of the subject were filmed once per week to analyze progression or loss of TD symptoms.
Topical rGSH was prescribed for 5 applications of 5 sprays each day to: (a) their right arm, (b) right jaw and masseter area, and (c) their spine. The total amount of administered rGSH was a total of 25 squirts per day (which is approximately 456 mg of rGSH via a Glutathione supplement) as applied by the nursing staff.

[5] = tested on: fibromyalgia syndrome (FMS) subjects; conditions: 43 subjects; rGSH with low copper diet and support product
Text: 43 fibromyalgia subjects underwent dietary changes supplements including: (a) a low copper diet, (b) a support product containing molybdenum, boron, zinc chelate, pyridoxine, N-Acetyl L-Cysteine, L-serine and L-glutamine, and (c) rGSH.

[6] = tested on: subject with partial and full thickness burn lesions
Method: The subject was treated with topical applications of rGSH. The subject was administered the rGSH 5-8 times a day over a 3-month period.
A subject had accidentally burned themself on an outdoor grill. The subject was treated with rGSH at 5-8 times a day with topical application. The subject was also treated with Cephalexin 500 mg in case of infection.

[7] = after 35 days of rGSH treatment

Nc1nc2c(ncn2COCCO)c(=O)[nH]1 [acyclovir, reference compound]
effect of earlier chronic medication on shingles/PHN pain ([1]; chronic doses before rGSH treatment): without substantial ameliorative effect

C[C@]12CC[C@H]3[C@@H](CCC4=CC(=O)CC[C@@]43C)[C@@H]1CC[C@@H]2O [injectable testosterone, testosterone, reference compound]
effect on the subject's issues (insulin sensitivity, muscle strength, neuropathy) ([2]; modest dose, before rGSH treatment): did not have a substantial effect

N[C@@H](CCC(=O)N[C@@H](CS)C(=O)NCC(=O)O)C(=O)O [rGSH, reduced glutathione]
time to major resolution of symptoms ([3]; Patient 5-C): ≤ 3 days | pain in the feet ([3]; Patient 5-C, Day 63): no longer felt pain in the feet | CIPN symptoms ([3]; Patient 5-D, Day 31): substantial decrease in symptoms | feeling better since starting treatment ([3]; Patient 5-D, Day 38): about 70% | decrease in symptoms ([3]; Patient 5-D, Day 52): 80% | CIPN symptoms resolved, as reported by the subject ([3]; Subject 5-A, Day 12, only took rGSH orally): about 40% | CIPN symptoms ([3]; Subject 5-B, Day 7): improved symptoms | improvement of symptoms since using rGSH ([3]; Subject 5-B, Day 42): 50% | resolution of CIPN symptoms ([3]; Subject 5-B, Day 84): 70% | resolution of CIPN symptoms ([3]; Subject 5-B, Day 112): 70% | resolution of CIPN symptoms ([3]; Subject 5-B, Day 245, rGSH stopped for a few months): 70% | time to nearly complete resolution of symptoms ([1]; one subject with shingles and PHN for about nine years): ≤ 34 min | share of subjects with nearly complete resolution only over a more extended period ([1]; over a hundred patients and volunteers with shingles): Less than 5% | extended period to nearly complete resolution ([1]; the subjects with slower response): 2 to 5 days | renal or liver functions ([2]; after 13 weeks of therapy): No effect | HBA1C ([2]; after 13 weeks of therapy, 10.0% before): 10.1% | neuropathy in the hands ([2]; oral and topical rGSH, weekly examination): complete resolution in their hands in the first few weeks | outcome of diabetic neuropathy [2]: resolved substantially | outcome of diabetic neuropathy ([2]; listed as stable rGSH): resolved | diabetic neuropathy in seven other subjects ([2]; seven other subjects treated with stable rGSH): complete resolution | outcome of TD ([4]; after 10 weeks of treatment): resolved completely | interval between involuntary jaw movements (masseter muscles) ([4]; after 21 days of topical rGSH, about 456 mg/day, before treatment about every 1-2 seconds): 4 to 5 s | interval between involuntary arm movements ([4]; after 21 days of topical rGSH, before treatment about every 1-2 seconds): 4 to 5 s | ambulation ([4]; after 42 days): no longer used assistance for walking up and down stairs | interval between facial and arm movements ([4]; after 42 days of topical rGSH): ~10 s | pain in shoulder, back and jaw ([4]; after 42 days, compared with the 21 day period): substantially decreased | involuntary facial or arm movement ([4]; after 70 days): no longer had involuntary facial or arm movement | pain ([4]; after 70 days): substantially free of pain | TD symptoms ([4]; after 70 days of rGSH administration): substantially free of symptoms | FMS symptoms [5]: substantial resolution | pain in fibromyalgia subjects [5]: substantially reduced pain | burn pain ([6]; 10 weeks after the burn): no longer had any pain | burn pain ([6]; after 21 days of rGSH treatment): tolerable | infection of the burn [6, 7]: No infection had occurred | state of the wound [6, 7]: dead skin and eschar were gone and new skin has started to epithelialize | state of the wound ([6]; after 49 days of treatment): nearly healed | burn pain within an hour of application ([6]; day of the burn): nearly dissipated | time until pain was subsiding after topical application ([6]; day of the burn): ≤ 30 min | course of burn healing ([6]; topical rGSH 5-8 times per day over a 3-month period): Healing commenced immediately with minimal pain, minimal scarring, no infection, and minimal drainage

— patent US20240009265A1, “METHODS OF TREATMENT COMPRISING STABLE REDUCED GLUTATHIONE” (Blue Sky Innovation, LLC, priority 2020, published 2024)
